Data from PubChem BioAssay (NCI).
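Five concentrations, 48 hours, 96-well plates. Abbreviation: GI50, concentration required for 50% inhibition of growth. TGI marks complete inhibition of growth.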

Legend:
Test in all cases: NCI tumour cell line growth inhibition, 48 h
SK-OV-3 ovarian = test system: SK-OV-3 ovarian
HOP-92 NSCLC = test system: HOP-92 NSCLC
T-47D breast = test system: T-47D breast
SF-268 CNS = test system: SF-268 CNS
HCT-116 colon = test system: HCT-116 colon
HOP-62 NSCLC = test system: HOP-62 NSCLC
HCT-15 colon = test system: HCT-15 colon
HCC-2998 colon = test system: HCC-2998 colon
HL-60(TB) leukemia = test system: HL-60(TB) leukemia
SK-MEL-28 melanoma = test system: SK-MEL-28 melanoma

Compound	TGI (SK-OV-3 ovarian) [nM]	TGI (HOP-92 NSCLC) [nM]	TGI (T-47D breast) [nM]	TGI (SF-268 CNS) [nM]	TGI (HCT-116 colon) [nM]	TGI (HOP-62 NSCLC) [nM]	TGI (HCT-15 colon) [nM]	TGI (HCC-2998 colon) [nM]	TGI (HL-60(TB) leukemia) [nM]	GI50 (SK-OV-3 ovarian) [nM]	GI50 (T-47D breast) [nM]	GI50 (SF-268 CNS) [nM]	GI50 (HCT-116 colon) [nM]	GI50 (HOP-62 NSCLC) [nM]	GI50 (HCC-2998 colon) [nM]	GI50 (SK-MEL-28 melanoma) [nM]	TGI (SK-MEL-28 melanoma) [nM]	GI50 (HL-60(TB) leukemia) [nM]	GI50 (HOP-92 NSCLC) [nM]	GI50 (HCT-15 colon) [nM]
COc1ccc(C(=O)C2CC3(CCC2(O)c2ccc(OC)cc2)CC(=O)Nc2ccccc2C3=O)cc1 (centres undefined)	> 100000	> 100000	> 100000	> 100000	> 100000	> 100000	> 100000	> 100000	> 100000											
ClCCN(CCCl)Cc1ccc(Nc2ccnc3cc(Cl)ccc23)cc1	4520		3690	5680	> 100000	5160		2760	3070	1440	1090	1180	1560	1340	1410	2150	5310	403		
COC[C@H]1C(=O)NCC(=O)N2NCCC[C@H]2C(=O)N(O)[C@H](C)C(=O)O[C@@H](C(C)C)[C@H](NC(=O)[C@](C)(O)[C@]2(O)CC[C@@H](CC(C)C)[C@H](C)O2)C(=O)N2NCCC[C@@H]2C(=O)N1O	30.6	37.7	33.2			14.9	43.3		39.9	16.3	14.9			< 10		< 10	22.1	15.1	16.1	17.6
CCOc1ncn(-c2ccc(NC(=S)Nc3cccc(O)c3)cc2)n1	> 100000	> 100000	> 100000	> 100000	> 100000	> 100000	> 100000	> 100000	> 100000								> 100000			
